Measurements taken from article PMC8890504, “Evolution of Brain-Expressed Biogenic Amine Receptors into Olfactory Trace Amine-Associated Receptors” (Molecular Biology and Evolution, 2022).
Values joined by “and” are separate entries in the source; they are usually repeats but may differ in a detail not shown here. Identical values can stand only once.

Columns and labels:
shark TAARS1b = shark TAARS1b (Chiloscyllium punctatum, UniProt A0A401S5C1); experiment: Cell-based receptor activation reporter assay (SEAP / Dual-Glo luciferase); set-up: species or system bamboo shark
Chain of shark TAARS1b (A0A401S5C1 entry or part of it): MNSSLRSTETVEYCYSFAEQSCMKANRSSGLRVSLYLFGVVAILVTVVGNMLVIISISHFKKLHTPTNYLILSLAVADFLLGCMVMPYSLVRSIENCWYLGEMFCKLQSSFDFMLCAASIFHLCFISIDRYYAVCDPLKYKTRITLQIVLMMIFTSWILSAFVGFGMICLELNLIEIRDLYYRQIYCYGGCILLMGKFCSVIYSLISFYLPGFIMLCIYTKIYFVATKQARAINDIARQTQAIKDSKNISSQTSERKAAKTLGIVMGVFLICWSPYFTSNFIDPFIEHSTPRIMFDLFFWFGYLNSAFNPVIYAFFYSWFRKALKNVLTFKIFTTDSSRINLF
Procedure: (§1) Fluorescence was measured with a BioTek Microplate reader.

mouse TAAR5 = target: T1, mouse TAAR5 (Mus musculus, UniProt Q5QD14); experiment: as above
T1 construct: bovine rhodopsin N-terminal 20 amino acids (Rho tag); expressed in transfected cells; host or cells: HEK293(T) (SEAP assay) or Hana3A (Dual-Glo assay)
T1 sequence (Q5QD14 whole entry): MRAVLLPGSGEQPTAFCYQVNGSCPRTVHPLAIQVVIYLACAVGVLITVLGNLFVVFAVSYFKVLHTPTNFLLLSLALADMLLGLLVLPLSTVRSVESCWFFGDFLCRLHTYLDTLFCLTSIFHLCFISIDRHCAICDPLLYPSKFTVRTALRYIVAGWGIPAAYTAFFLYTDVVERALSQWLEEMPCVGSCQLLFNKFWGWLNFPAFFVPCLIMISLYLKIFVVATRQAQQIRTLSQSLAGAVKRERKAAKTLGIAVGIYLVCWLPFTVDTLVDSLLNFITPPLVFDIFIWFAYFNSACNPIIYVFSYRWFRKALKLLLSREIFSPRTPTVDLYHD
Procedure: as §1

mouse TAAR8c = target: T2, mouse TAAR8c (Mus musculus, UniProt Q5QD05); experiment: as above
T2 construct: bovine rhodopsin N-terminal 20 amino acids (Rho tag); expressed in transfected cells; host or cells: HEK293(T) (SEAP assay) or Hana3A (Dual-Glo assay)
Procedure: as §1

catfish TAAR13h = catfish TAAR13h (Ictalurus punctatus, UniProt A0A2D0SG84); experiment: as above
Chain of catfish TAAR13h (A0A2D0SG84 entry or part of it): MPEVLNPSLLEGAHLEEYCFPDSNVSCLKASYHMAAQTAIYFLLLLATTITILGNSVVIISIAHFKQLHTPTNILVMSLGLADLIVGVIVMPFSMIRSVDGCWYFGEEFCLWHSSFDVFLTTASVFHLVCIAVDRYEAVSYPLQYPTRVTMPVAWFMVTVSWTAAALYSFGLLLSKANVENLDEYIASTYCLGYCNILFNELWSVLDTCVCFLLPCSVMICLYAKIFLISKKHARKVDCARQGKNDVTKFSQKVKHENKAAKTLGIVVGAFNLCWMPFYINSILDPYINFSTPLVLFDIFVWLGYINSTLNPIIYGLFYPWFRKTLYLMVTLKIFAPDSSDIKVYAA
Procedure: as §1

catfish TAAR13f = catfish TAAR13f (Ictalurus punctatus, UniProt A0A2D0SGW4); experiment: as above
Procedure: as §1

rat TAAR8a = target: T3, rat TAAR8a (Rattus norvegicus, UniProt Q923X9); experiment: as above
T3 construct: bovine rhodopsin N-terminal 20 amino acids (Rho tag); expressed in transfected cells; host or cells: HEK293(T) (SEAP assay) or Hana3A (Dual-Glo assay)
Procedure: as §1

mouse TAAR7d = target: T4, mouse TAAR7d (Mus musculus, UniProt Q5QD10); experiment: as above
T4 construct: bovine rhodopsin N-terminal 20 amino acids (Rho tag); expressed in transfected cells; host or cells: HEK293(T) (SEAP assay) or Hana3A (Dual-Glo assay)
Procedure: as §1

mouse TAAR6 = target: T5, mouse TAAR6 (Mus musculus, UniProt Q5QD13); experiment: as above
T5 construct: bovine rhodopsin N-terminal 20 amino acids (Rho tag); expressed in transfected cells; host or cells: HEK293(T) (SEAP assay) or Hana3A (Dual-Glo assay)
T5 sequence (Q5QD13 whole entry): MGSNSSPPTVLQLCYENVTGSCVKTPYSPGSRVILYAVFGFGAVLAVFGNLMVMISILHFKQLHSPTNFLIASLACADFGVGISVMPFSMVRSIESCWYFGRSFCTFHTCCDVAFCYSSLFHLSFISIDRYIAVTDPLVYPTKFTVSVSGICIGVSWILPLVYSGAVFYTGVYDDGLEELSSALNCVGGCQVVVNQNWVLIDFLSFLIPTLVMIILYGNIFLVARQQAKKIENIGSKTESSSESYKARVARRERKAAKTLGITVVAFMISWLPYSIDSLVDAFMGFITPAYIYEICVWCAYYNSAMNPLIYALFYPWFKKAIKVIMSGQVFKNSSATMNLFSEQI
Procedure: as §1

rat TAAR7a = target: T6, rat TAAR7a (Rattus norvegicus, UniProt Q923Y2); experiment: as above
T6 construct: bovine rhodopsin N-terminal 20 amino acids (Rho tag); expressed in transfected cells; host or cells: HEK293(T) (SEAP assay) or Hana3A (Dual-Glo assay)
Procedure: as §1

rabbit TAAR8b = rabbit TAAR8b (Oryctolagus cuniculus, UniProt G1SRV7); experiment: as above
Procedure: as §1

wild boar TAAR7 = wild boar TAAR7 (Sus scrofa, UniProt F1S3Q1); experiment: as above
Chain of wild boar TAAR7 (F1S3Q1 entry or part of it): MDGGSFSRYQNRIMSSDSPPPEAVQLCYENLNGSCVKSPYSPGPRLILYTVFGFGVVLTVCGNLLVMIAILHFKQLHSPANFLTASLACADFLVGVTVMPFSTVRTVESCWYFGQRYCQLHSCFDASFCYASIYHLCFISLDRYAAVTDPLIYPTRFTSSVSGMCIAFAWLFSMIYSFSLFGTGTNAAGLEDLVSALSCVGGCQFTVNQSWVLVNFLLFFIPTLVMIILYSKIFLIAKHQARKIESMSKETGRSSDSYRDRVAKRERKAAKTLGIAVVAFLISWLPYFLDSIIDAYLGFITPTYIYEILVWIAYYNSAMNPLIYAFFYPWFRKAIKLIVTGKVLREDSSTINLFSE
Procedure: as §1

rat TAAR9 = target: T7, rat TAAR9 (Rattus norvegicus, UniProt Q923Y6); experiment: as above
T7 construct: bovine rhodopsin N-terminal 20 amino acids (Rho tag); expressed in transfected cells; host or cells: HEK293(T) (SEAP assay) or Hana3A (Dual-Glo assay)
T7 sequence (Q923Y6 1-338): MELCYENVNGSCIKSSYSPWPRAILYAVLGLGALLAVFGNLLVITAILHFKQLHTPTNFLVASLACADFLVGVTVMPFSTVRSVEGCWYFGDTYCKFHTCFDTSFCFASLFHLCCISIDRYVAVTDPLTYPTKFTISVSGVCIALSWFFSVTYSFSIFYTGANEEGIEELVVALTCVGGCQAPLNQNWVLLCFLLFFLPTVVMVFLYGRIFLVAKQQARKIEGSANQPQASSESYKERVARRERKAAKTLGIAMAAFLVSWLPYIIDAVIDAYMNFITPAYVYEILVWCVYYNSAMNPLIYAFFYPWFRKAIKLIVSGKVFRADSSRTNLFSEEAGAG
Procedure: as §1

cat TAAR6b = cat TAAR6b (Felis catus, UniProt A0ABI7X994); experiment: as above
Procedure: as §1

rat TAAR6 = target: T8, rat TAAR6 (Rattus norvegicus, UniProt Q923Y5); experiment: as above
T8 construct: bovine rhodopsin N-terminal 20 amino acids (Rho tag); expressed in transfected cells; host or cells: HEK293(T) (SEAP assay) or Hana3A (Dual-Glo assay)
Procedure: as §1

TARL2 = experiment: Response to 16 ligands at 10 µM, luciferase assay; type: cell-based, coelacanth and shark; conditions: fig. 5B
Procedure: (§2) Ligand profiles and expression patterns of HTR4, TARL, and TAAR1. (A) qPCR analysis of different receptors in zebrafish tissues. Gapdh serves as a control. (B) Response of HTR4, TARL, TAARC1, and TAAR1 to 16 ligands at 10 μM. The heatmap is based on the ratio of fluorescence intensity of ligand–receptor interaction and no ligand controls in the luciferase assay. […] (C) PhyloPCA analysis on the responses of HTR4, TARL, TAARC1, and TAAR1 to these 16 ligands. […] Dots colored by receptor clades represent the ligand responses of receptors on the first two PC axes. Ligand eigenvectors are represented by lines and colored according to the ligand clusters. A ligand name is shown at the tip of the line if its eigenvector has a higher contribution (compared with other ligands) to either PC1 or PC2. […] (D) The presence of HTR4, TARL1, TARL2, and TAAR1 in several representative species in vertebrates is plotted. […]
(§3) Hana3A cells were plated onto 96-well plates (Greiner bio-one) with 50 µl growth medium (DMEM medium with 10% BCS and 5% penicillin–streptomycin solution with puromycin) and cultured at 37 °C with 5% CO2. […] The chemiluminescence of firefly luciferase and renilla luciferase were measured with a Biotek Microplate reader using the Dual-Glo Luciferase Assay System (Promega).

cow TAAR4 = cow TAAR4 (Bos taurus, UniProt F1MNY9); experiment: Cell-based receptor activation reporter assay (SEAP / Dual-Glo luciferase)
Procedure: as §1

guinea pig TAAR4 = guinea pig TAAR4 (Cavia porcellus, UniProt H0W119); experiment: as above
Chain of guinea pig TAAR4 (H0W119 entry or part of it): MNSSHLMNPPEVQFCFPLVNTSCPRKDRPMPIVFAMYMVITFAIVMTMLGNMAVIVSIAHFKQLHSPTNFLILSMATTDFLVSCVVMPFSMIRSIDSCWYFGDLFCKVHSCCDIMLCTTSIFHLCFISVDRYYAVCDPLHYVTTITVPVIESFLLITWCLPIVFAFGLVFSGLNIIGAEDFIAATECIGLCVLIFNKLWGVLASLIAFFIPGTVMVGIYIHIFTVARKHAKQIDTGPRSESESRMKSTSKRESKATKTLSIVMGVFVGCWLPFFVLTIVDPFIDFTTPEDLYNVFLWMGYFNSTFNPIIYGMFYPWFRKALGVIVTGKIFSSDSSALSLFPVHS
Procedure: as §1

horse TAAR4 = horse TAAR4 (Equus caballus, UniProt F7BPI5); experiment: as above
Chain of horse TAAR4 (F7BPI5 entry or part of it): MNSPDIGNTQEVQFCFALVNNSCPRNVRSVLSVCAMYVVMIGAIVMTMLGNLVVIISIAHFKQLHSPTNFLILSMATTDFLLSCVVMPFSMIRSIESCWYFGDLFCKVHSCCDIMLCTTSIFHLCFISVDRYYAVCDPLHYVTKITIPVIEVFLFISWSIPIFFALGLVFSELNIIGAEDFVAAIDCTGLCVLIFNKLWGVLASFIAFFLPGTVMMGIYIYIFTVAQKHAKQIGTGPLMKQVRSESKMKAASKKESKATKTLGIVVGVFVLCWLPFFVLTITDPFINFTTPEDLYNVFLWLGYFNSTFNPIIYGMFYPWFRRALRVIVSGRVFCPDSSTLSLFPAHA
Procedure: as §1

hamster TAAR4 = hamster TAAR4 (Mesocricetus auratus, UniProt A0A1U7Q3I9); experiment: as above
Chain of hamster TAAR4 (A0A1U7Q3I9 entry or part of it): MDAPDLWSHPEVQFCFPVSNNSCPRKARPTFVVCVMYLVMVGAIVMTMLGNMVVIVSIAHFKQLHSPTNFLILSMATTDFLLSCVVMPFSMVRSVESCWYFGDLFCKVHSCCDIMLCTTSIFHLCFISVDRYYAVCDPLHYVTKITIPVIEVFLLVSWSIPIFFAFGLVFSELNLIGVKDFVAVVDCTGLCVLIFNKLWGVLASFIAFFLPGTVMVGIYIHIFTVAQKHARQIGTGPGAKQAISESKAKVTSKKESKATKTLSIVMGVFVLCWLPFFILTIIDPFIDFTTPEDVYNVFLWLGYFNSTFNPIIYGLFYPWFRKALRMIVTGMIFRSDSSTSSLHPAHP
Procedure: as §1

cat TAAR4 = cat TAAR4 (Felis catus, UniProt A0ABI7X9K0); experiment: as above
Chain of cat TAAR4 (A0ABI7X9K0 entry or part of it): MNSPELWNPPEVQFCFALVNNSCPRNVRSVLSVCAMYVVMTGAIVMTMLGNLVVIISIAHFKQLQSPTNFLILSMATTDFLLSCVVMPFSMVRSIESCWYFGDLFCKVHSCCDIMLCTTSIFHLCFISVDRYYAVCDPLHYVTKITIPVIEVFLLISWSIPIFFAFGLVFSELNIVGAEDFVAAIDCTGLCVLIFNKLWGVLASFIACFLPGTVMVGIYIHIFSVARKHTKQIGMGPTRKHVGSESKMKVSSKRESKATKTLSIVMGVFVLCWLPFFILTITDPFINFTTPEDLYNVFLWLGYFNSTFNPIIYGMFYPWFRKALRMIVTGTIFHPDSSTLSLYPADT
Procedure: as §1

zebrafish TAAR12j = zebrafish TAAR12j (Danio rerio, UniProt Q5QNN7); experiment: as above
Procedure: as §1

TARL1 = experiment: Response to 16 ligands at 10 µM, luciferase assay; type: cell-based; conditions: fig. 5B
Procedure: as §2, §3

mouse TAAR8a = target: T9, mouse TAAR8a (Mus musculus, UniProt Q5QD07); experiment: Cell-based receptor activation reporter assay (SEAP / Dual-Glo luciferase)
T9 construct: bovine rhodopsin N-terminal 20 amino acids (Rho tag); expressed in transfected cells; host or cells: HEK293(T) (SEAP assay) or Hana3A (Dual-Glo assay)
Procedure: as §1

hamster TAAR5 = hamster TAAR5 (Mesocricetus auratus, UniProt A0A1U7QEC3); experiment: cell-based
Description: (§4) Next, we conducted high-throughput screening to further explore the functional properties of these aminergic receptors. We cloned 248 TAARs from 11 mammals (human, mouse, rat, guinea pig, hamster, cat, horse, rabbit, sheep, rhesus, and wild boar), two reptiles (alligator and chicken), six teleosts (zebrafish, catfish, fugu, medaka, salmon, and pufferfish), one lobed-finned fish (coelacanth), one holost fish (spotted gar), and one cartilaginous fish (bamboo shark) (fig. 2A). We also cloned eight TARLs from coelacanth, zebrafish, catfish, fugu, medaka, spotted gar, shark, and 28 TARLLs from sea lamprey (supplementary table S2, Supplementary Material online). In addition, we cloned two HTR4s from mouse and zebrafish. We then challenged all of the cloned receptors with a ligand library comprised 97 amines at 100 µM.
(§5) HEK293 cells were plated onto poly-D-lysine (Sigma–Aldrich) preincubated 96-well plates (Corning) with 50 µl growth medium (DMEM medium with 10% BCS and 5% penicillin–streptomycin solution) and cultured for 18–24 h. Receptor plasmids were cotransfected with Cre-SEAP plasmid using polyethylenimine (PEI, Polysciences) and incubated at 37 °C with 5% CO2. About 4 h later, cells were incubated with or without test compounds diluted in serum-free DMEM for 48 h, followed by incubating for 2 h at 70 °C. After returning to room temperature, 50 µl supernatant from each well was incubated with an equal volume of 0.3 mM 4-methylumbelliferyl phosphate (4-MUP, Sigma–Aldrich) in 2 M diethanolamine bicarbonate (Sigma–Aldrich), pH 10.0 for 15 min. Fluorescence was measured with a BioTek Microplate reader.
(§6) Hana3A cells were plated onto 96-well plates (Greiner bio-one) with 50 µl growth medium (DMEM medium with 10% BCS and 5% penicillin–streptomycin solution with puromycin) and cultured at 37 °C with 5% CO2. After 18–24 h, cells in each well were cotransfected with 50 ng receptor plasmid, 10 ng CRE-Luc, 10 ng pRL-SV40, and 10 ng mRTPs using Lipofectamine 2000 (Invitrogen), and incubated for 18 h. Medium was then replaced by 25 µl CD293 (Invitrogen) containing 1% glutamine with or without test compounds for 4 h. The chemiluminescence of firefly luciferase and renilla luciferase were measured with a Biotek Microplate reader using the Dual-Glo Luciferase Assay System (Promega).

cow TAAR5 = cow TAAR5 (Bos taurus, UniProt F1MTC9); experiment: cell-based; conditions: EC50 (μM)
Chain of cow TAAR5 (F1MTC9 entry or part of it): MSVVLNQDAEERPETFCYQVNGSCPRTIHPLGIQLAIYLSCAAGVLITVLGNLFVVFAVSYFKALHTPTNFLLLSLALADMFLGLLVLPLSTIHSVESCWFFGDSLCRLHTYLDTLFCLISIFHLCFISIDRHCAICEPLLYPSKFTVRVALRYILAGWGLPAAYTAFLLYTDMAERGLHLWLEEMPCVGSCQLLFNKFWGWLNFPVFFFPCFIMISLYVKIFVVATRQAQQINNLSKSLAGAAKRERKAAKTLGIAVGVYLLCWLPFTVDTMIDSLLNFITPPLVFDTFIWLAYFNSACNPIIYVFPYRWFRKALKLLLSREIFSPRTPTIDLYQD
Description: as §4, §5, §6

sheep TAAR5 = sheep TAAR5 (Ovis aries, UniProt A0ACI6PZ16); experiment: Cell-based receptor activation reporter assay (SEAP / Dual-Glo luciferase)
Chain of sheep TAAR5 (A0ACI6PZ16 entry or part of it): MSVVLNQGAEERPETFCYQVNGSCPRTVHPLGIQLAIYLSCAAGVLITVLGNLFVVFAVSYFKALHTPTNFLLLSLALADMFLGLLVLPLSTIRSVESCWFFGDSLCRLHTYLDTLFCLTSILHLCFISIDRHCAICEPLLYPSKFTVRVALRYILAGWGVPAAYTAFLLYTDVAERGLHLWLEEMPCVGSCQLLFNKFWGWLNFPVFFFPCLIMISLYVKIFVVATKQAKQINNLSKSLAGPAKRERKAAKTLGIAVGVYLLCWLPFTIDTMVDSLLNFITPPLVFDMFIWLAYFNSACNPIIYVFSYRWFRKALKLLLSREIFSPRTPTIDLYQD
Procedure: as §1

cat TAAR5 = cat TAAR5 (Felis catus, UniProt A0ABI7YAE2); experiment: as above
Procedure: as §1

shark TARL2 = shark TARL2 (Chiloscyllium punctatum, UniProt A0A401SGR3); experiment: as above; set-up: species or system bamboo shark
Procedure: as §1

TARLL1b = TARLL1b (Petromyzon marinus, UniProt A0AAJ7TCG4); experiment: as above; set-up: species or system sea lamprey; conditions: TARLL1b
Chain of TARLL1b (A0AAJ7TCG4 entry or part of it): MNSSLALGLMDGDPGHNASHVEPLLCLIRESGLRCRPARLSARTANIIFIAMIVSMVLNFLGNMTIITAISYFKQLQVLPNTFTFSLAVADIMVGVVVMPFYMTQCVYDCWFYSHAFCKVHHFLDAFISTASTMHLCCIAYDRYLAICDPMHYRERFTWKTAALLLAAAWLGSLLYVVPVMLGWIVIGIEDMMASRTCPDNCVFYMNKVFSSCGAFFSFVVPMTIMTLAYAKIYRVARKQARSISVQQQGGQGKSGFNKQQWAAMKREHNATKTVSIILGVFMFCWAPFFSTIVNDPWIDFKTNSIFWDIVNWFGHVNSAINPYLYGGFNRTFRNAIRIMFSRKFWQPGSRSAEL
Procedure: as §1

mouse TAAR1 = mouse TAAR1 (Mus musculus, UniProt Q923Y8); experiment: cell-based; conditions: mTAAR1
Description: as §4
We then compared the responses of HTR4 from mouse and zebrafish, TARL1 from zebrafish, catfish, fugu, medaka, spotted gar, and coelacanth, TARL2 from coelacanth and shark, TAAR1 from mouse and zebrafish to the 16 ligands at 10 µM (fig. 5B).
as §5, §6

mouse HTR4 = mouse HTR4 (Mus musculus, UniProt P97288); experiment: cell-based
Chain of mouse HTR4 (P97288 whole entry): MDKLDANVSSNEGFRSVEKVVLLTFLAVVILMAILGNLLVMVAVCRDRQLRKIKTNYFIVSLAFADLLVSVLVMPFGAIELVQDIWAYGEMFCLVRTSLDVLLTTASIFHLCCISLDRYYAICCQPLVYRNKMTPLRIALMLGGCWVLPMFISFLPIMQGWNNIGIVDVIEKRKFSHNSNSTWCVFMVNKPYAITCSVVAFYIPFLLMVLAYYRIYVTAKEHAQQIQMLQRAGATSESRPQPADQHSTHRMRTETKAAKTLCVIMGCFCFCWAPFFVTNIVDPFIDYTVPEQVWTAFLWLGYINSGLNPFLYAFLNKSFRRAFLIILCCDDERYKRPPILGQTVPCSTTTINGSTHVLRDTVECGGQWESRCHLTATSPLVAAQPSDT
Description: as §4, §5, §6

spotted gar TARL1 = spotted gar TARL1 (Lepisosteus oculatus, UniProt W5NNR6); experiment: Cell-based receptor activation reporter assay (SEAP / Dual-Glo luciferase)
Procedure: as §1

zebrafish TAAR1 = zebrafish TAAR1 (Danio rerio, UniProt Q5QNN1); experiment: as above; conditions: zTAAR1
Procedure: as §1

coelacanth TAARC1b = coelacanth TAARC1b (Latimeria chalumnae, UniProt H3A8V0); experiment: as above
Procedure: as §1

coelacanth TARL2 = coelacanth TARL2 (Latimeria chalumnae, UniProt H3AWX3); experiment: as above
Procedure: as §1

(UniProt Z9G6W3R3V9) = experiment: as above; conditions: coelacanth TARL1
Procedure: as §1

zebrafish TARL1 = zebrafish TARL1 (Danio rerio, UniProt A0A8M1Q794); experiment: as above
Procedure: as §1

catfish TAAR13g = catfish TAAR13g (Ictalurus punctatus, UniProt A0A2D0SG81); experiment: as above
Procedure: as §1

medaka TAAR21f = experiment: as above
Procedure: as §1

spotted gar TAAR1b = spotted gar TAAR1b (Lepisosteus oculatus, UniProt W5NMY1); experiment: as above
Chain of spotted gar TAAR1b (W5NMY1 entry or part of it): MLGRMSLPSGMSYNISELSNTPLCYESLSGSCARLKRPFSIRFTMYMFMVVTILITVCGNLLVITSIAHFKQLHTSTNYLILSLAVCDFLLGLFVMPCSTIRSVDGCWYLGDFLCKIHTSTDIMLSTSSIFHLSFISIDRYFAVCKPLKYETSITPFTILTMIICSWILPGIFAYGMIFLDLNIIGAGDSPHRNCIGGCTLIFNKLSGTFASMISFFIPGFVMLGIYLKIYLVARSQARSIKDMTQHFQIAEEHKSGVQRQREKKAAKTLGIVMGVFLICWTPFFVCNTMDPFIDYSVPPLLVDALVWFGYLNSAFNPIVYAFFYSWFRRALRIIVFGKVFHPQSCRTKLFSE
Procedure: as §1

Work on CN1CCCCC1 [1-methylpiperidine] yielded an EC50 (shark TAARS1b) of 17.6 µM, an EC50 (mouse TAAR5) of 8.2 µM and an EC50 (mouse TAAR8c) of 1.5 µM.
N=C(N)NCCCCN [Agmatine, agmatine] showed an EC50 (catfish TAAR13h) of 165 µM and an EC50 (catfish TAAR13f) of 40 pM.
Work on CN(C)C1CCCCC1 [N,N-dimethylcyclohexylamine] yielded an EC50 (rat TAAR8a) of 27.6 µM, an EC50 (mouse TAAR7d) of 107 µM and an EC50 (mouse TAAR6) of about 50 µM. The EC50 (rat TAAR7a) was 49.5 µM, the EC50 (rabbit TAAR8b) was about 50 µM and the EC50 (wild boar TAAR7) was 50 µM and ~50 µM. The EC50 (rat TAAR9) was about 30 µM, the EC50 (cat TAAR6b) was 101 µM and the EC50 (rat TAAR6) was about 50 µM.
NCCc1ccccc1 [Phenylethylamine, phenylethylamine] was tested, and the TARL2 ligand profile (TARL2) was “cannot recognize”, the EC50 (cow TAAR4) was 98.4 µM and the EC50 (guinea pig TAAR4) was 150 µM and ~150 µM. For the same compound, the EC50 (horse TAAR4) was 100 µM and ~100 µM, the EC50 (hamster TAAR4) was 300 µM and ~300 µM and the EC50 (cat TAAR4) was 30 µM and ~30 µM. The EC50 (zebrafish TAAR12j) was 4.8 µM and the TARL1 ligand profile (TARL1) was “ligands include”.
With C1CCNCC1 [Piperidine, piperidine] the EC50 (mouse TAAR8a) was about 300 µM.
In the case of CN(C)C [Trimethylamine, trimethylamine], the EC50 (shark TAARS1b) is reported as 1.4 µM, the EC50 (hamster TAAR5) is reported as 2.3 µM and the EC50 (cow TAAR5) is reported as 300 µM and ~300 µM. The EC50 (sheep TAAR5) was 500 µM and ~500 µM and the EC50 (cat TAAR5) was 6.9 µM.
For NCCc1c[nH]c2ccccc12 [Tryptamine, tryptamine], the EC50 (shark TARL2) was about 40 µM, the EC50 (TARLL1b) was about 100 µM and the EC50 (mouse TAAR1) was about 28 µM. For the same compound, the EC50 (mouse HTR4) was about 180 µM, the EC50 (spotted gar TARL1) was 3.1 µM and the EC50 (zebrafish TAAR1) was about 52 µM. The EC50 (coelacanth TAARC1b) was about 150 µM, the EC50 (coelacanth TARL2) was about 200 µM and the EC50 ((UniProt Z9G6W3R3V9)) was 18.1 µM. For the same compound, the EC50 (zebrafish TARL1) was 0.04 µM, the EC50 (catfish TAAR13g) was about 30 µM and the TARL1 ligand profile (TARL1) was “ligands include”.
NCCc1ccc(O)cc1 [Tyramine, tyramine] showed an EC50 (medaka TAAR21f) of 0.09 µM and an EC50 (spotted gar TAAR1b) of 0.7 µM.
